One test concerns P. aeruginosa ATCC 27853. In words: microbe, parasite or virus in culture. In kind it is cell-based. The conditions noted are these: Pseudomonas aeruginosa, ATCC27853, read-out: Minimum inhibitory concentration, P. aeruginosa ATCC 27853.
The next test has as its system A. baumannii CDC-0045. The experiment in a line: microbe, parasite or virus in culture. It counts as cell-based. The following applies: Acinetobacter baumannii, CDC0045, read-out: MIC, A. baumannii CDC-0045.
Test [1] addresses T1, PBP3 from Pseudomonas aeruginosa (PAO1) (Pseudomonas aeruginosa, UniProt G3XD46).
T1 construct: made in house
The experiment in a line: Bocillin-FL fluorescence polarization competition binding, P. aeruginosa PBP3. The conditions noted are these: Binding affinity to P. aeruginosa PBP3; fluorescence polarization competition binding assay using Bocillin-FL; read-out: P. aeruginosa PBP3 Potency. Summed up:
(§1)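 Purified PBP was preincubated with inhibitor (E. coli PBP3 1.5 μM, 30 min; P. aeruginosa PBP3 0.75 μM, A. baumannii PBP3 0.2 μM and PBP1a 1 μM, 15 min), then Bocillin-FL (0.1 μM; 0.05 μM for PBP1a) added and FP read up to 60 min. EC50 = 50% loss of bound probe.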
In general terms: Fluorescence polarisation rises when a labelled molecule tumbles more slowly, as on binding a larger partner.

The next test deals with A. baumannii CDC-0036. In words: microbe, parasite or virus in culture. In kind it is cell-based. The following applies: Acinetobacter baumannii, CDC0036, read-out: MIC, A. baumannii CDC-0036.
The subject of another test is A. baumannii ATCC 17978. In words: microbe, parasite or virus in culture. It counts as cell-based. The conditions noted are these: Acinetobacter baumannii, ATCC17978, read-out: MIC, A. baumannii ATCC 17978.
The target of test [2] is T2, PBP3 from Acinetobacter baumannii (ATCC 19606) (Acinetobacter baumannii, UniProt A0ABX6CK25).
T2 sequence (A0ABX6CK25 64-610): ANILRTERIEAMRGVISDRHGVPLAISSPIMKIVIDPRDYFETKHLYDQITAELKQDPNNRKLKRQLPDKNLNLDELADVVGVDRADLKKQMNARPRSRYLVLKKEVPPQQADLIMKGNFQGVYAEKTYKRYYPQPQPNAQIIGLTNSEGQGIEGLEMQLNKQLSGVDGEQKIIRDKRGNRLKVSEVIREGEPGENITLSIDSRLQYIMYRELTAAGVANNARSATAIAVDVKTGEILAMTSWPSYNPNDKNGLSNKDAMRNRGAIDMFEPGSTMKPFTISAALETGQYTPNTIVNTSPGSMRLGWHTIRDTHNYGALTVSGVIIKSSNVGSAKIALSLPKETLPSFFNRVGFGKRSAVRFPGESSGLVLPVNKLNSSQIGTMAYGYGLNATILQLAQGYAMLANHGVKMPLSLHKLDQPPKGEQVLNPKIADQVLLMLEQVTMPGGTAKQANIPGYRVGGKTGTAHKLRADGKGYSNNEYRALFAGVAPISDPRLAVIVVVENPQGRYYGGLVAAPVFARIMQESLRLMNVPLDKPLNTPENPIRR
The experiment in a line: Bocillin-FL fluorescence polarization competition binding, A. baumannii PBP3. The following applies: fluorescence polarization competition binding assay using Bocillin-FL; read-out: A. baumannii PBP3 Potency. Summed up:
as §1

The subject of the next test is P. aeruginosa CDC-0054. In words: microbe, parasite or virus in culture. The following applies: Pseudomonas aeruginosa, CDC0054, read-out: Minimum inhibitory concentration, P. aeruginosa CDC-0054. In kind it is cell-based.
Test [3] concerns B. thailandensis ATCC 700388. In words: microbe, parasite or virus in culture. It counts as cell-based. The conditions noted are these: Burkholderia thailandensis, ATCC700388, read-out: Minimum inhibitory concentration (MIC), B. thailandensis ATCC 700388.
For the next test, the system named is P. aeruginosa CDC-0090. In words: microbe, parasite or virus in culture. In kind it is cell-based. The conditions noted are these: Pseudomonas aeruginosa, CDC0090, read-out: Minimum inhibitory concentration, P. aeruginosa CDC-0090.
For another test, the system named is A. baumannii 1258916. In words: microbe, parasite or virus in culture. In kind it is cell-based, Acinetobacter baumannii. The following applies: Acinetobacter baumannii, 1258916, read-out: MIC, A. baumannii 1258916.

Structures are written as SMILES. In brackets after ≈: the same amount, converted by molar mass.

T1 sequence (G3XD46 whole entry): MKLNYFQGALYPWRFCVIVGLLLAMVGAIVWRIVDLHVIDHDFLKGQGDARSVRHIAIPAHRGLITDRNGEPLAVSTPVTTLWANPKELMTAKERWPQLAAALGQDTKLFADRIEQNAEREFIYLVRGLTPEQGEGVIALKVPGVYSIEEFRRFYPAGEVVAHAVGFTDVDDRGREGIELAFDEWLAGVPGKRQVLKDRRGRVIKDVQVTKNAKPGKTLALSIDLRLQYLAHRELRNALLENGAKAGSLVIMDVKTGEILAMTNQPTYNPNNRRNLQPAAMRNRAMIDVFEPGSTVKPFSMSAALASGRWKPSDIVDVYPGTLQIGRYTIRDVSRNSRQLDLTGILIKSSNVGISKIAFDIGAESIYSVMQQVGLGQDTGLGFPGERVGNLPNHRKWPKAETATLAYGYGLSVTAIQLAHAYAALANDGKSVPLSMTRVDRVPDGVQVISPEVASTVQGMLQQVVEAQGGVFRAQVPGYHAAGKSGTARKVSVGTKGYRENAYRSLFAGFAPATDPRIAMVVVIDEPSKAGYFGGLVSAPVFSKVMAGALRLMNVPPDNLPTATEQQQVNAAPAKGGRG

`O=C(NCCCN1CCN(C(=O)NC(C(=O)N[C@H]2Cc3ccc(F)c(C(=O)O)c3OB2O)c2cc(F)c(O)c(O)c2Cl)C(=O)C1=O)c1cccc(O)c1F` (stereo partly drawn) [Example 406, (3R)-3-(2-(2-chloro-5-fluoro-3,4-dihydroxyphenyl)-2-(4.-(3-(2-fluoro-3-hydroxybenzamido)propyl)-2,3-dioxopiperazine-1-carboxamido)acetamido)-7-fluoro-2-hydroxy-3,4-dihydro-2H-benzo[e][1,2]oxaborinine-8-carboxylic acid]: the MIC was less than 1 µg/mL in the test on P. aeruginosa ATCC 27853; less than 1 µg/mL with A. baumannii CDC-0045; 2 to 4 µg/mL (≈ 2.57 to 5.14 µM) with A. baumannii CDC-0036; less than 1 µg/mL with A. baumannii ATCC 17978; less than 1 µg/mL in the test with P. aeruginosa CDC-0054; 2 to 4 µg/mL (≈ 2.57 to 5.14 µM) in [3]. The MIC with P. aeruginosa CDC-0090 is less than 1 µg/mL; with A. baumannii 1258916 it was 2 to 4 µg/mL (≈ 2.57 to 5.14 µM). Besides, the IC50 in [1] and in [2] was less than 10 µM throughout.

For the molecule `O=C(NCCCN1CCN(C(=O)NC(C(=O)N[C@H]2Cc3ccc(F)c(C(=O)O)c3OB2O)c2cc(F)c(O)c(O)c2Cl)C(=O)C1=O)c1cc(O)ccc1F` (stereo partly drawn) [Example 407, (3R)-3-(2-(2-chloro-5-fluoro-3,4-dihydroxyphenyl)-2-(4-(3-(2-fluoro-5-hydroxybenzamido)propyl)-2,3-dioxopiperazine-1-carboxamido)acetamido)-7-fluoro-2-hydroxy-3,4-dihydro-2H-benzo[e][1,2]oxaborinine-8-carboxylic acid], the MIC in the test with P. aeruginosa ATCC 27853 is less than 1 µg/mL; with A. baumannii CDC-0045, less than 1 µg/mL; in the test with A. baumannii CDC-0036, 2 to 4 µg/mL (≈ 2.57 to 5.14 µM); with A. baumannii ATCC 17978, less than 1 µg/mL; in the test on P. aeruginosa CDC-0054 it was less than 1 µg/mL; in [3], 2 to 4 µg/mL (≈ 2.57 to 5.14 µM). Moreover, the MIC is less than 1 µg/mL in the test on P. aeruginosa CDC-0090 and 2 to 4 µg/mL (≈ 2.57 to 5.14 µM) in the test with A. baumannii 1258916. In addition, the IC50 in test [1] and in [2] was less than 10 µM throughout.

For the molecule `O=C(NCCCN1CCN(C(=O)NC(C(=O)N[C@H]2Cc3ccc(F)c(C(=O)O)c3OB2O)c2cc(F)c(O)c(O)c2Cl)C(=O)C1=O)c1cc(O)ccc1Cl` (stereo partly drawn) [Example 408, (3R)-3-(2-(2-chloro-5-fluoro-3,4-dihydroxyphenyl)-2-(4-(3-(2-chloro-5-hydroxybenzamido)propyl)-2,3-dioxopiperazine-1-carboxamido)acetamido)-7-fluoro-2-hydroxy-3,4-dihydro-2H-benzo[e][1,2]oxaborinine-8-carboxylic acid], the MIC in the test on P. aeruginosa ATCC 27853 was less than 1 µg/mL; with A. baumannii CDC-0045, less than 1 µg/mL; with A. baumannii CDC-0036, 8 to 16 µg/mL (≈ 10.1 to 20.1 µM); in the test on A. baumannii ATCC 17978, less than 1 µg/mL; in the test on P. aeruginosa CDC-0054, less than 1 µg/mL; in test [3], 2 to 4 µg/mL (≈ 2.52 to 5.04 µM). Also, the MIC in the test on P. aeruginosa CDC-0090 is less than 1 µg/mL; in the test on A. baumannii 1258916, 2 to 4 µg/mL (≈ 2.52 to 5.04 µM). Also, the IC50 in test [1] and in test [2] was less than 10 µM each time.

Consider `O=C(NCCCN1CCN(C(=O)NC(C(=O)N[C@H]2Cc3ccc(F)c(C(=O)O)c3OB2O)c2cc(F)c(O)c(O)c2Cl)C(=O)C1=O)c1ccc(F)c(O)c1` (stereo partly drawn) [Example 409, (3R)-3-(2-(2-chloro-5-fluoro-3,4-dihydroxyphenyl)-2-(4-(3-(4-fluoro-3-hydroxybenzamido)propyl)-2,3-dioxopiperazine-1-carboxamido)acetamido)-7-fluoro-2-hydroxy-3,4-dihydro-2H-benzo[e][1,2]oxaborinine-8-carboxylic acid], for which the MIC in the test with P. aeruginosa ATCC 27853 was less than 1 µg/mL; with A. baumannii CDC-0045, less than 1 µg/mL; with A. baumannii CDC-0036 it was 2 to 4 µg/mL (≈ 2.57 to 5.14 µM); with A. baumannii ATCC 17978, less than 1 µg/mL; in the test on P. aeruginosa CDC-0054 it was less than 1 µg/mL; in [3] it was 2 to 4 µg/mL (≈ 2.57 to 5.14 µM). Besides, the MIC with P. aeruginosa CDC-0090 was less than 1 µg/mL; in the test with A. baumannii 1258916 it was 2 to 4 µg/mL (≈ 2.57 to 5.14 µM). Besides, the IC50 in test [1] and in [2] was less than 10 µM throughout.

For `O=C(NCCCN1CCN(C(=O)NC(C(=O)N[C@H]2Cc3ccc(F)c(C(=O)O)c3OB2O)c2cc(F)c(O)c(O)c2Cl)C(=O)C1=O)c1cc(O)cc(F)c1` (stereo partly drawn) [Example 410, (3R)-3-(2-(2-chloro-5-fluoro-3,4-dihydroxyphenyl)-2-(4-(3-(3-fluoro-5-hydroxybenzamido)propyl)-2,3-dioxopiperazine-1-carboxamido)acetamido)-7-fluoro-2-hydroxy-3,4-dihydro-2H-benzo[e][1,2]oxaborinine-8-carboxylic acid], the MIC is less than 1 µg/mL in the test with P. aeruginosa ATCC 27853; less than 1 µg/mL in the test with A. baumannii CDC-0045; 2 to 4 µg/mL (≈ 2.57 to 5.14 µM) with A. baumannii CDC-0036; less than 1 µg/mL with A. baumannii ATCC 17978; less than 1 µg/mL in the test with P. aeruginosa CDC-0054; 2 to 4 µg/mL (≈ 2.57 to 5.14 µM) in test [3]. In addition, the values for the MIC in the test on P. aeruginosa CDC-0090 and with A. baumannii 1258916 were less than 1 µg/mL and 2 to 4 µg/mL (≈ 2.57 to 5.14 µM), respectively. Besides, the IC50 in test [1] and in test [2] was less than 10 µM in each case.

`O=C(NCCCN1CCN(C(=O)NC(C(=O)N[C@H]2Cc3ccc(F)c(C(=O)O)c3OB2O)c2cc(F)c(O)c(O)c2Cl)C(=O)C1=O)c1ccc(F)c(O)c1F` (stereo partly drawn) [Example 411, (3R)-3-(2-(2-chloro-5-fluoro-3,4-dihydroxyphenyl)-2-(4-(3-(2,4-difluoro-3-hydroxybenzamido)propyl)-2,3-dioxopiperazine-1-carboxamido)acetamido)-7-fluoro-2-hydroxy-3,4-dihydro-2H-benzo[e][1,2]oxaborinine-8-carboxylic acid]: the MIC was less than 1 µg/mL with P. aeruginosa ATCC 27853; 2 to 4 µg/mL (≈ 2.51 to 5.03 µM) in the test on A. baumannii CDC-0045; 2 to 4 µg/mL (≈ 2.51 to 5.03 µM) with A. baumannii CDC-0036; less than 1 µg/mL with A. baumannii ATCC 17978; less than 1 µg/mL in the test on P. aeruginosa CDC-0054; 2 to 4 µg/mL (≈ 2.51 to 5.03 µM) in test [3]. For the same molecule, the MIC in the test with P. aeruginosa CDC-0090 is less than 1 µg/mL; in the test with A. baumannii 1258916, 2 to 4 µg/mL (≈ 2.51 to 5.03 µM). Moreover, the IC50 in test [1] and in test [2] was less than 10 µM throughout.

As for `O=C(NCCCN1CCN(C(=O)NC(C(=O)N[C@H]2Cc3ccc(F)c(C(=O)O)c3OB2O)c2cc(F)c(O)c(O)c2Cl)C(=O)C1=O)c1ccc(F)c(O)c1Cl` (stereo partly drawn) [Example 412, (3R)-3-(2-(4-(3-(2-chloro-4-fluoro-3-hydroxybenzamido)propyl)-2,3-dioxopiperazine-1-carboxamido)-2-(2-chloro-5-fluoro-3,4-dihydroxyphenyl)acetamido)-7-fluoro-2-hydroxy-3,4-dihydro-2H-benzo[e][1,2]oxaborinine-8-carboxylic acid], the MIC with P. aeruginosa ATCC 27853 was less than 1 µg/mL; in the test on A. baumannii CDC-0045, 2 to 4 µg/mL (≈ 2.46 to 4.92 µM); with A. baumannii CDC-0036, 8 to 16 µg/mL (≈ 9.85 to 19.7 µM); in the test with A. baumannii ATCC 17978, less than 1 µg/mL; with P. aeruginosa CDC-0054, less than 1 µg/mL; in test [3], 2 to 4 µg/mL (≈ 2.46 to 4.92 µM). Also, the MIC in the test with P. aeruginosa CDC-0090 and with A. baumannii 1258916 was 2 to 4 µg/mL (≈ 2.46 to 4.92 µM) throughout. In addition, the IC50 in [1] and in test [2] was less than 10 µM throughout.

For the molecule `O=C(NCCCN1CCN(C(=O)NC(C(=O)N[C@H]2Cc3ccc(F)c(C(=O)O)c3OB2O)c2cc(F)c(O)c(O)c2Cl)C(=O)C1=O)c1c(F)ccc(O)c1F` (stereo partly drawn) [Example 413, (3R)-3-(2-(2-chloro-5-fluoro-3,4-dihydroxyphenyl)-2-(4-(3-(2,6-difluoro-3-hydroxybenzamido)propyl)-2,3-dioxopiperazine-1-carboxamido)acetamido)-7-fluoro-2-hydroxy-3,4-dihydro-2H-benzo[e][1,2]oxaborinine-8-carboxylic acid], the MIC is less than 1 µg/mL with P. aeruginosa ATCC 27853; 2 to 4 µg/mL (≈ 2.51 to 5.03 µM) in the test on A. baumannii CDC-0045; 2 to 4 µg/mL (≈ 2.51 to 5.03 µM) with A. baumannii CDC-0036; less than 1 µg/mL in the test with A. baumannii ATCC 17978; less than 1 µg/mL with P. aeruginosa CDC-0054; 2 to 4 µg/mL (≈ 2.51 to 5.03 µM) in test [3]. Moreover, the MIC in the test on P. aeruginosa CDC-0090 was less than 1 µg/mL; in the test with A. baumannii 1258916 it was 2 to 4 µg/mL (≈ 2.51 to 5.03 µM). In addition, the IC50 in test [1] and in test [2] was less than 10 µM each time.

(Values after patent US20240270762A1, “PENICILLIN-BINDING PROTEIN INHIBITORS” (priority 2021, published 2024).)
